Experiments:
[1] = test system: MCF7; experiment: Antiproliferative activity against human MCF7 cells assessed as reduction in cell viability after 24 hrs by MTT assay; type: functional, cell-based; conditions: MCF7, 24 h
[2] = test system: HeLa; experiment: Induction of apoptosis in human HeLa cells assessed as late apoptotic cells at 1.25 uM after 48 hrs by annexin-V-FITC/propidium iodide staining based flow cytometry (reference value: 9.3%); type: functional
[3] = test system: HeLa; experiment: Induction of cell cycle arrest in human HeLa cells assessed as accumulation at S phase at 2 uM after 24 hrs by propidium iodide staining based flow cytometry (reference value: 0.12 to 0.13%); type: functional
[4] = test system: HeLa; experiment: Induction of apoptosis in human HeLa cells assessed as early apoptotic cells at 2.5 uM after 48 hrs by annexin-V-FITC/propidium iodide staining based flow cytometry (reference value: 1.4%); type: functional
[5] = test system: A549; experiment: Antiproliferative activity against human A549 cells assessed as reduction in cell viability after 72 hrs by MTT assay; type: functional, cell-based; conditions: for IC50: A549, 72 h
[6] = test system: HeLa; experiment: Induction of apoptosis in human HeLa cells assessed as necrotic cells at 2.5 uM after 48 hrs by annexin-V-FITC/propidium iodide staining based flow cytometry (reference value: 0.693%); type: functional
[7] = test system: HepG2; experiment: Antiproliferative activity against human HepG2 cells assessed as reduction in cell viability after 24 hrs by MTT assay; type: functional, cell-based; conditions: HepG2, 24 h
[8] = test system: HeLa; experiment: Induction of cell cycle arrest in human HeLa cells assessed as accumulation at G2/M phase at 1 uM after 24 hrs by propidium iodide staining based flow cytometry (reference value: 0.35 to 0.37%); type: functional
[9] = test system: HeLa; experiment: Induction of cell cycle arrest in human HeLa cells assessed as accumulation at G0/G1 phase at 2 uM after 24 hrs by propidium iodide staining based flow cytometry (reference value: 0.5 to 0.52%); type: functional
[10] = Antiproliferative activity against human HCT116 cells assessed as reduction in cell viability after 24 hrs by MTT assay; type: functional, cell-based; conditions: HCT-116, 24 h
[11] = test system: HepG2; experiment: Antiproliferative activity against human HepG2 cells assessed as reduction in cell viability after 72 hrs by MTT assay; type: functional, cell-based; conditions: HepG2, 72 h
[12] = Antiproliferative activity against human HCT116 cells assessed as reduction in cell viability after 72 hrs by MTT assay; type: functional, cell-based; conditions: HCT-116, 72 h
[13] = test system: HeLa; experiment: Induction of cell cycle arrest in human HeLa cells assessed as accumulation at S phase at 1 uM after 24 hrs by propidium iodide staining based flow cytometry (reference value: 0.12 to 0.13%); type: functional
[14] = test system: HeLa; experiment: Induction of apoptosis in human HeLa cells assessed as viable cells at 2.5 uM after 48 hrs by annexin-V-FITC/propidium iodide staining based flow cytometry (reference value: 88.6%); type: functional; conditions: Homo sapiens, HeLa, 48 h; read-out: Activity
[15] = test system: HeLa; experiment: Induction of cell cycle arrest in human HeLa cells assessed as accumulation at S phase at 0.5 uM after 24 hrs by propidium iodide staining based flow cytometry (reference value: 0.12 to 0.13%); type: functional
[16] = target: Histone deacetylase 2 (Homo sapiens, UniProt Q92769); experiment: Inhibition of HDAC2 (unknown origin) using Boc-Lys(acetyl)-AMC as substrate preincubated for 5 mins followed by substrate addition by fluorescence assay
Chain of Histone deacetylase 2 (Q92769 whole entry): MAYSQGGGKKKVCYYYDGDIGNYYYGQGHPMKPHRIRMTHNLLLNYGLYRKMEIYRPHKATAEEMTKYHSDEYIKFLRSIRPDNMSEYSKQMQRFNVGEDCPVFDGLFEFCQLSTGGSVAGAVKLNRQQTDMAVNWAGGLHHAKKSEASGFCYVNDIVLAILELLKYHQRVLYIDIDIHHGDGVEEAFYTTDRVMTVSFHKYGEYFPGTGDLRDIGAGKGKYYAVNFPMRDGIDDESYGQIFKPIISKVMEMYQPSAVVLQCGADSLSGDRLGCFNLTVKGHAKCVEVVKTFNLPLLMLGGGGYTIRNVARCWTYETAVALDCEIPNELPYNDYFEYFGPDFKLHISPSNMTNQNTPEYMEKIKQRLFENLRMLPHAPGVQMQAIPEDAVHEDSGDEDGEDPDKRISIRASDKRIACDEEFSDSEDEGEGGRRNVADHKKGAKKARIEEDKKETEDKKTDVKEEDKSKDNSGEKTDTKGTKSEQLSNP

[17] = test system: HeLa; experiment: Induction of apoptosis in human HeLa cells assessed as viable cells at 1.25 uM after 48 hrs by annexin-V-FITC/propidium iodide staining based flow cytometry (reference value: 88.6%); type: functional; conditions: Homo sapiens, HeLa, 48 h; read-out: Activity
[18] = test system: HeLa; experiment: Induction of cell cycle arrest in human HeLa cells assessed as accumulation at G0/G1 phase at 0.5 uM after 24 hrs by propidium iodide staining based flow cytometry (reference value: 0.5 to 0.52%); type: functional
[19] = test system: HeLa; experiment: Induction of apoptosis in human HeLa cells assessed as necrotic cells at 5 uM after 48 hrs by annexin-V-FITC/propidium iodide staining based flow cytometry (reference value: 0.693%); type: functional
[20] = test system: HeLa; experiment: Induction of apoptosis in human HeLa cells assessed as early apoptotic cells at 5 uM after 48 hrs by annexin-V-FITC/propidium iodide staining based flow cytometry (reference value: 1.4%); type: functional
[21] = Antiproliferative activity against human HCT116 cells assessed as reduction in cell viability after 48 hrs by MTT assay; type: functional, cell-based; conditions: HCT-116, 48 h
[22] = test system: HeLa; experiment: Antiproliferative activity against human HeLa cells assessed as reduction in cell viability after 72 hrs by MTT assay; type: functional, cell-based
[23] = target: T1, Protein deacetylase HDAC6 (Homo sapiens, UniProt Q9UBN7); experiment: Inhibition of HDAC6 (unknown origin) using Boc-Lys(acetyl)-AMC as substrate preincubated for 5 mins followed by substrate addition by fluorescence assay
T1 sequence (Q9UBN7 whole entry): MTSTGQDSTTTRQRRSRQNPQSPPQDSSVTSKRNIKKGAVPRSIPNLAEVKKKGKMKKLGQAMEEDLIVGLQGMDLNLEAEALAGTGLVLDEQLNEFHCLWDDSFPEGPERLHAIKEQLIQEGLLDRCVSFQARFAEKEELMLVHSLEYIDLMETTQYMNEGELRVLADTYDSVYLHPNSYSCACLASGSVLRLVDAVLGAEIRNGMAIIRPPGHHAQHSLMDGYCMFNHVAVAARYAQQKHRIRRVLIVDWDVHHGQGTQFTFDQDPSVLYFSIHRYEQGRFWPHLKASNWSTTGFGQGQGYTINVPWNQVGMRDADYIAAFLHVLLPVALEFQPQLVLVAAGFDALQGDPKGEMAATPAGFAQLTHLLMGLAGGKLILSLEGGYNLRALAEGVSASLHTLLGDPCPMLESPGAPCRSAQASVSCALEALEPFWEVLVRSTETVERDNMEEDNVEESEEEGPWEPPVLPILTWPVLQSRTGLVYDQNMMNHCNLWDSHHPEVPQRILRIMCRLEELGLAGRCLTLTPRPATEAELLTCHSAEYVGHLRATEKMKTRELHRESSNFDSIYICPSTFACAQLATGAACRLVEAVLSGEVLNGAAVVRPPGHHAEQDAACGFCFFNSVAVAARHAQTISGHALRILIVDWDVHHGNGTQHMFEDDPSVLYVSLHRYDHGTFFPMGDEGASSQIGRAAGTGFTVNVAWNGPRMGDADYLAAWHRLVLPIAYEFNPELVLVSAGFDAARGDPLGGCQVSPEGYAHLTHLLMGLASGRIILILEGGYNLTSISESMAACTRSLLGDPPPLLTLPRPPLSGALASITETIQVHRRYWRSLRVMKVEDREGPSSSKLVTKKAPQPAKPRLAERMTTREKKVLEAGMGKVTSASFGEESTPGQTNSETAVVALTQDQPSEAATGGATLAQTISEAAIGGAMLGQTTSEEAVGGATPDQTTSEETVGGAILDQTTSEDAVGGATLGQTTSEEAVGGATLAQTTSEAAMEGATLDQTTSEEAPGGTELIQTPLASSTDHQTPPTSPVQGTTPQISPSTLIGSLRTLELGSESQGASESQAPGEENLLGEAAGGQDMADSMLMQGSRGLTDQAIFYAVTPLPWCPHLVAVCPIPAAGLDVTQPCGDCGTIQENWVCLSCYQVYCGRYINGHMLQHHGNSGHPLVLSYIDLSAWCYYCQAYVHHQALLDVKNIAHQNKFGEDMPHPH

Compound	IC50 [1] [µM]	Activity [2] [%]	Activity [3] [%]	Activity [4] [%]	Activity [5]	IC50 [5] [µM]	Activity [6] [%]	IC50 [7] [µM]	Activity [8] [%]	Activity [9] [%]	IC50 [10] [µM]	IC50 [11] [µM]	IC50 [12] [µM]	Activity [13] [%]	viability at 2.5 µM [14] [%]	Activity [15] [%]	IC50 [16] [µM]	viability at 1.25 µM [17] [%]	Activity [18] [%]	Activity [19] [%]	other results
O=C(NO)c1ccc(CNc2nccc(-c3cccnc3)n2)cc1	46	14.9	0.03	6.33	Dose-dependent effect	4.64	0.72	22.9	0.31	0.93	13.7	2.96	1.66	0.03	81.1	0.13	0.134	79.3	0.56	0.536	Activity [20]: 11.1%; IC50 [21]: < 0.88 µM; IC50 [22]: 3.17 µM; IC50 [23]: 0.078 µM
O=C(/C=C/c1ccc(CNc2nccc(-c3cccnc3)n2)cc1)NO	46	12.2	0.03	6.59	Dose-dependent effect	7.99	0.603	20.5	0.29	0.87	8.28	6.52	1.05	0.05	79.6	0.13	0.187	82.6	0.58	0.858	Activity [20]: 10.2%; IC50 [21]: < 0.81 µM; IC50 [22]: 3.24 µM; IC50 [23]: 0.069 µM

Reference: ChEMBL document CHEMBL3751819, “Navigating into the chemical space between MGCD0103 and SAHA: novel histone deacetylase inhibitors as a promising lead” (Medchemcomm, 2015)
